Each structure is given as a SMILES string.

One assay concerns Phakopsora pachyrhizi. Description: Test D: Asian soybean rust, spray on soybean seedlings, disease control rating. In kind it is in vivo. The conditions noted are these: Rate 10 ppm, 100 = 100% disease control, 0 = no disease control relative to the controls; for pest or weed control at 10 ppm: Phakopsora pachyrhizi, 216 h. The source says: (§1) General protocol for preparing test suspensions for Tests A-F: the test compounds were first dissolved in acetone in an amount equal to 3% of the final volume and then suspended at the desired concentration (in ppm) in acetone and purified water (50/50 mix by volume) containing 250 ppm of the surfactant PEG400 (polyhydric alcohol esters). The resulting test suspensions were then used in Tests A-F.
The test solution was sprayed to the point of run-off on soybean seedlings. The following day the seedlings were inoculated with a spore suspension of Phakopsora pachyrhizi (the causal agent of Asian soybean rust) and incubated in a saturated atmosphere at 22° C. for 24 h and then moved to a growth chamber at 22° C. for 8 days, after which time visual disease ratings were made.
(§2) A rating of 100 indicates 100% disease control and a rating of 0 indicates no disease control (relative to the controls). A dash (-) indicates the compound was not tested.

In assay [1] the test system is Puccinia recondita f. sp. tritici. Description: Test B: wheat leaf rust, spray on wheat seedlings, disease control rating. Type of assay: in vivo. The conditions noted are these: Rate 10 ppm, 100 = 100% disease control, 0 = no disease control relative to the controls; for pest or weed control at 10 ppm: Puccinia recondita, 192 h.
Description: as §1
The test solution was sprayed to the point of run-off on wheat seedlings. The following day the seedlings were inoculated with a spore suspension of Puccinia recondita f. sp. tritici (the causal agent of wheat leaf rust) and incubated in a saturated atmosphere at 20° C. for 24 h, and then moved to a growth chamber at 20° C. for 7 days, after which time disease ratings were made.
as §2

The pest or weed control is how far the test organism was held down. As to `CNc1cc(F)c(-n2ccc(-c3ccc(C)c(CNC(=O)OC)c3)n2)c(F)c1` [Compound 36], the pest or weed control at 10 ppm in the assay with Phakopsora pachyrhizi was found to be 100%; in assay [1], 68%.
On the same counts, the results for `COC(=O)NCc1cc(-c2ccn(-c3c(Cl)cc(N)cc3Cl)n2)ccc1C` [Compound 55] are 0% and 0%.
With `COC(=O)NCc1cc(-c2ccn(-c3c(F)cc(OCC(C)C)cc3F)n2)ccc1C` [Compound 12], the “Test D disease control rating” value in the assay with Phakopsora pachyrhizi was 100%. Also, in assay [1], the “Test B disease control rating” value worked out at 98%.
Consider `COC(=O)NCc1cc(-c2ccn(-c3c(F)cc(CC(C)=O)cc3F)n2)ccc1C` [Compound 75], for which the “Test D disease control rating” value in the assay on Phakopsora pachyrhizi is reported as 87%. Further, in assay [1], the “Test B disease control rating” value worked out at 0%.
For `COC(=O)NCc1cc(-c2ccn(-c3c(F)cc(N)cc3Cl)n2)ccc1C` [Compound 39], the pest or weed control at 10 ppm (in the assay with Phakopsora pachyrhizi; in assay [1]) was 0% in each case.
Turning to `C=C(C)c1cc(F)c(-n2ncc(-c3ccc(C)c(CNC(=O)OC)c3)n2)c(F)c1` [Compound 110], in the assay with Phakopsora pachyrhizi, the “Test D disease control rating” value was determined as 100%. Also, the “Test B disease control rating” value in assay [1] is recorded as 95%.
On the same counts, the results for `COC(=O)NCc1cc(-c2ccn(-c3c(F)cc(OCC4CCCO4)cc3F)n2)ccc1C` (stereo not shown) [Compound 23] are 25% and 68%.
For `COC(=O)NCc1cc(-c2ccn(-c3c(F)cc(F)cc3F)n2)ccc1C` [Compound 16], the pest or weed control at 10 ppm in the assay on Phakopsora pachyrhizi was 100%; in assay [1], 99%.
On the same counts, the results for `COC(=O)NCc1cc(-c2ccn(-c3c(F)cc(C4OCCO4)cc3F)n2)ccc1C` [Compound 133] are 100% and 99%.
As for `COC(=O)NCc1cc(-c2ccn(-c3c(F)cc(OC(C)(C)C)cc3F)n2)ccc1C` [Compound 93], in the assay on Phakopsora pachyrhizi, the “Test D disease control rating” value is listed as 100%. For the same molecule, the “Test B disease control rating” value in assay [1] came to 100%.
For `COC(=O)NCc1cc(-c2ccn(-c3c(F)cc(C(C)=NO)cc3F)n2)ccc1C` [Compound 69], in the assay with Phakopsora pachyrhizi, the “Test D disease control rating” value came out at 97%. The “Test B disease control rating” value in assay [1] is given as 99%.
Regarding `COC(=O)NCc1cc(-c2cnn(-c3c(F)cc(CC(C)C)cc3F)n2)ccc1C` [Compound 109], the pest or weed control at 10 ppm in the assay on Phakopsora pachyrhizi was found to be 100%; in assay [1], 91%.
As for `CCON=Cc1cc(F)c(-n2ccc(-c3ccc(C)c(CNC(=O)OC)c3)n2)c(F)c1` [Compound 80], in the assay with Phakopsora pachyrhizi, the “Test D disease control rating” value was 100%. Also, in assay [1], the “Test B disease control rating” value stood at 100%.
Take `COC(=O)NCc1cc(-c2ccn(-c3c(F)cc(OC(C)C)cc3F)n2)ccc1C` [Compound 14, methyl N-[[5-[1-[2,6-difluoro-4-(1-methylethoxy)phenyl]-1H-pyrazol-3-yl]-2-methylphenyl]methyl]carbamate]: the pest or weed control at 10 ppm (in the assay on Phakopsora pachyrhizi; in assay [1]) was 100% in each case.
Regarding `COC(=O)NCc1cc(-c2ccn(-c3c(C)cc(OC)cc3C)n2)ccc1C` [Compound 40], the pest or weed control at 10 ppm in the assay on Phakopsora pachyrhizi came to 99%; in assay [1], 0%.
On the same counts, the results for `COC(=O)NCc1cc(-c2cn(-c3c(OC)cc(OC)cc3OC)nn2)ccc1C` [Compound 127] are 0% and 0%.
On the same counts, the results for `COC(=O)NCc1cc(-c2ccn(-c3c(F)cc(C=O)cc3F)n2)ccc1C` [Compound 67, methyl N-[[5-[1-(2,6-difluoro-4-formylphenyl)-1H-pyrazol-3-yl]-2-methylphenyl]methyl]carbamate] are 12% and 0%.
With `CON=C(C)c1cc(F)c(-n2ccc(-c3ccc(C)c(CNC(=O)OC)c3)n2)c(F)c1` [Compound 99], the “Test D disease control rating” value in the assay on Phakopsora pachyrhizi is listed as 100%. Moreover, the “Test B disease control rating” value in assay [1] is on record as 100%.
`COC(=O)NCc1cc(-c2ccn(-c3c(F)cc(C(=O)OC)cc3F)n2)ccc1C` [Compound 70, methyl 3,5-difluoro-4-[3-[3-[[(methoxycarbonyl)amino]methyl]-4-methylphenyl]-1H-pyrazol-1-yl]benzoate]: the pest or weed control at 10 ppm is 81% in the assay with Phakopsora pachyrhizi and 74% in assay [1].
With `C=C(C)c1cc(F)c(-n2ccc(-c3ccc(C)c(CNC(=O)OC)c3)n2)c(F)c1` [Compound 62], the “Test D disease control rating” value in the assay on Phakopsora pachyrhizi was determined as 100%. Also, the “Test B disease control rating” value in assay [1] worked out at 99%.
Regarding `COC(=O)NCc1cc(-c2ccn(-c3c(F)cc(I)cc3SC)n2)ccc1C` [Compound 26], the pest or weed control at 10 ppm in the assay on Phakopsora pachyrhizi came out at 87%; in assay [1], 73%.
In the case of `COC(=O)NCc1cc(-c2ccn(-c3c(F)cc(OC4CCCC4)cc3F)n2)ccc1C` [Compound 90], the “Test D disease control rating” value in the assay on Phakopsora pachyrhizi was 100%. Further, the “Test B disease control rating” value in assay [1] amounted to 86%.
On the same counts, the results for `COC(=O)NCc1cc(-c2ccn(-c3c(F)cc(C=NO)cc3F)n2)ccc1C` [Compound 72] are 77% and 100%.
Consider `COC(=O)NCc1cc(-c2ccn(-c3c(F)cccc3Br)n2)ccc1C` [Compound 46], for which the pest or weed control at 10 ppm with Phakopsora pachyrhizi was 100%; in assay [1] it was 68%.
As to `COC(=O)NCc1cc(-c2ccn(-c3c(F)cc(SC(F)F)cc3F)n2)ccc1C` [Compound 43, methyl N-[[5-[1-[4-[(difluoromethyl)thio]-2,6-difluorophenyl]-1H-pyrazol-3-yl]-2-methylphenyl]methyl]carbamate], the pest or weed control at 10 ppm (in the assay on Phakopsora pachyrhizi; in assay [1]) was 100% throughout.
Turning to `COC(=O)NCc1cc(-c2ccn(-c3c(Cl)cc(Cl)cc3Cl)n2)ccc1C` [Compound 57], the values for the pest or weed control at 10 ppm (with Phakopsora pachyrhizi; in assay [1]) were 100% and 74%, respectively.
For the molecule `COC(=O)NCc1cc(-c2ccn(-c3c(F)cc(C(C)=O)cc3F)n2)ccc1C` [Compound 68, methyl N-[[5-[1-(4-acetyl-2,6-difluorophenyl)-1H-pyrazol-3-yl]-2-methylphenyl]methyl]carbamate], the pest or weed control at 10 ppm in the assay with Phakopsora pachyrhizi is 71%; in assay [1], 74%.
On the same counts, the results for `COC(=O)NCc1cc(-c2ccn(-c3c(F)cc(CO)cc3F)n2)ccc1C` [Compound 71, methyl N-[[5-[1-[2,6-difluoro-4-(hydroxymethyl)phenyl]-1H-pyrazol-3-yl]-2-methylphenyl]methyl]carbamate] are 25% and 0%.
As for `CON=Cc1cc(F)c(-n2ccc(-c3ccc(C)c(CNC(=O)OC)c3)n2)c(F)c1` [Compound 79], the “Test D disease control rating” value with Phakopsora pachyrhizi worked out at 100%. The “Test B disease control rating” value in assay [1] was determined as 100%.
Regarding `COC(=O)NCc1cc(-c2ccn(-c3c(F)cc(SC(C)(C)C)cc3F)n2)ccc1C` [Compound 42, methyl N-[[5-[1-[4-[(1,1-dimethylethyl)thio]-2,6-difluorophenyl]-1H-pyrazol-3-yl]-2-methylphenyl]methyl]carbamate], the pest or weed control at 10 ppm in the assay on Phakopsora pachyrhizi was 73%; in assay [1], 100%.
Consider `COC(=O)NCc1cc(-c2ccn(-c3c(F)cc(OCC4COC4)cc3F)n2)ccc1C` [Compound 32], for which the “Test D disease control rating” value in the assay with Phakopsora pachyrhizi came to 77%. Besides, in assay [1], the “Test B disease control rating” value is reported as 0%.
On the same counts, the results for `COC(=O)NCc1cc(-c2ccn(-c3c(F)cc(C(C)O)cc3F)n2)ccc1C` (stereo not shown) [Compound 96] are 79% and 68%.
On the same counts, the results for `C=CCON=Cc1cc(F)c(-n2ccc(-c3ccc(C)c(CNC(=O)OC)c3)n2)c(F)c1` [Compound 81] are 100% and 92%.
On the same counts, the results for `COC(=O)NCc1cc(-c2ccn(-c3c(F)cc(OCC4CC4)cc3F)n2)ccc1C` [Compound 9] are 99% and 99%.
On to `COC(=O)NCc1cc(-c2ccn(-c3c(C)cccc3Br)n2)ccc1C` [Compound 61], for which the pest or weed control at 10 ppm with Phakopsora pachyrhizi was found to be 97%; in assay [1] it was 68%.
For the molecule `CCON=C(C)c1cc(F)c(-n2ccc(-c3ccc(C)c(CNC(=O)OC)c3)n2)c(F)c1` [Compound 84], the “Test D disease control rating” value in the assay on Phakopsora pachyrhizi stood at 100%. In assay [1], the “Test B disease control rating” value is 100%.
For the molecule `C=C(C)c1cc(Br)c(-n2ccc(-c3ccc(C)c(CNC(=O)OC)c3)n2)c(Br)c1` [Compound 137], the “Test D disease control rating” value with Phakopsora pachyrhizi worked out at 77%. The “Test B disease control rating” value in assay [1] was found to be 0%.
With `COC(=O)NCc1cc(-c2ccn(-c3c(F)cc(OCF)cc3F)n2)ccc1C` [Compound 73], the pest or weed control at 10 ppm (with Phakopsora pachyrhizi; in assay [1]) was 100% throughout.
On to `COC(=O)NCc1cc(-c2ccn(-c3c(F)cc(SC)cc3F)n2)ccc1C` [Compound 27], for which the pest or weed control at 10 ppm with Phakopsora pachyrhizi amounted to 100%; in assay [1], 99%.
`CCC(C)Oc1cc(F)c(-n2ccc(-c3ccc(C)c(CNC(=O)OC)c3)n2)c(F)c1` (stereo not shown) [Compound 92]: in the assay with Phakopsora pachyrhizi, the “Test D disease control rating” value amounted to 100%. The “Test B disease control rating” value in assay [1] stood at 100%.
Consider `COC(=O)NCc1cc(-c2ccn(-c3c(F)cc(NC(C)=O)cc3F)n2)ccc1C` [Compound 25], for which, in the assay on Phakopsora pachyrhizi, the “Test D disease control rating” value came out at 81%. Moreover, the “Test B disease control rating” value in assay [1] stood at 8%.

The record behind these values is patent US11634393B2, “Substituted tolyl fungicides” (FMC CORPORATION, priority 2018, dated 2023).
